How the values were obtained:
WT and Fmr1 KO mice [1] = assay: Audiogenic seizures (AGS) induced by 120 dB sound; type: in vivo, mouse; conditions: NB001 1 mg kg^-1 IP; for % Clonic/tonic seizure / % Death / % Wild running: 1 h before testing, 120 dB
Method: Audiogenic seizures (AGS) were examined with 21- to 24-day-old-mouse (7), as this phenotype is dependent on the age of the mouse and only detected in juvenile Frm1 KO mouse. Mouse was placed in a box (30 cm L × 17 cm W × 12 cm H) with a flat plastic lid. A personal alarm (Streetwise, item # SWPDAL) was taped to the lid of the box and wired to a DC power supply to keep the sound amplitude constant. The mouse was allowed to acclimatize to the box for 5 min, following which 120 dB sound was emitted from the alarm for 2 min. The number of mice undergoing seizure activity within the 2-min period was counted. Audiogenic seizures were classified into different stages: wild running, clonic/tonic seizure and death.
(§1) NB001 was dissolved in water to give a 25 mM stock solution. The stock was diluted in saline and IP injected into mice at 1 mg kg^−1 body weight. In all cases, the drug was administered 1 h before testing. Control mice were treated similarly but injected with saline.
To inhibit phosphodiesterase (PDE), rolipram was dissolved in 10% kolliphore and IP injected into mice at 0.5 or 0.03 mg kg^−1. The use of the higher dose (that is, 0.5 mg kg^−1) was to ensure sufficient inhibition of PDE[44][45]. […] Rolipram- or vehicle (10% kolliphore)-injected mice were examined with light/dark test and AGS 30 min after drug administration.

ERK1/2 = assay: Immunoblot of phosphorylated and total ERK1/2 in hippocampus after i.p. injection; type: in vivo, mouse; conditions: NB001 1 mg kg^-1 IP
Method: (§2) Hippocampal tissues were collected from 3-month-(+/−10 days) old mice. […] The primers used for Adcy1 were […] (forward) and […] (reverse). The protein levels in hippocampal tissues collected from mice were determined by western blot using anti-ADCY1 (Sigma, Cat # SAB4500146-100UG, 1:1,000 dilution), anti-p-ERK1/2 (Cell Signaling, Cat # 9101L, 1:1,000 dilution), anti-pAkt (Cell Signaling, Cat # 9271, 1:1,000 dilution), anti-pS6K1 (Cell Signaling, Cat # 9204L for the detection of phosphorylation at Thr421/Ser424, Cat # 9234S for the detection of phosphorylation at Thr389, 1:1,000 dilution), anti-ERK1/2 (Cell Signaling, Cat # 9102L, 1:1,000 dilution), anti-Akt (Cell Signaling, Cat # 9272S, 1:1,000 dilution), anti-S6K1 (Cell Signaling, Cat # 9202L, 1:1,000 dilution) and anti-β-actin antibody (Sigma, Cat # A5441; 1:5,000 dilution). Following incubations with infrared fluorescence (IRDye)-conjugated secondary antibodies (1:5,000, LI-COR Biosciences, Cat # 926–32211 and 926–68070), signals were detected using the Odyssey system (LI-COR Biosciences). The un-cropped western blots are shown in Supplementary Fig. 10.
as §1

Akt = assay: Immunoblot of phosphorylated and total Akt in hippocampus after i.p. injection; type: in vivo, mouse; conditions: acute NB001 1 mg kg^-1 IP, 1 h after injection
Method: as §2, §1

WT and Fmr1 KO mice [2] = assay: Marble burying test; type: in vivo, mouse; conditions: NB001 1 mg kg^-1 IP, 1 h before testing
Method: (§3) Repetitive behaviour was determined by the marble burying test as described. 3-month-(+/−10 days) old mouse was placed in a regular mouse cage filled with 7.6 cm-deep bedding for 1 h before the test. The mouse was then briefly removed from the testing box and 15 marbles were evenly arranged in a 5 × 3 pattern on the surface of the bedding. The mouse was reintroduced into the testing box and was allowed to bury marbles for 10 min. At the end of the testing period, the number of marbles that were fully buried, partially buried and left on the surface was counted.
as §1

WT mice = assay: Behavioural examinations in WT mice (Fig. 5e-h; Table 2); type: in vivo, mouse; conditions: NB001 1 mg kg^-1 IP, marble burying, light/dark, social interaction, AGS
Method: as §3
Light/dark test was examined as described in our previous study. Light/dark test was performed using 3-month (+/−10 days) old mouse, which was first placed in the dark half of the chamber (Coulbourn Instruments). […] The time spent in each chamber and the number of entries into the lit side were recorded.
Audiogenic seizures (AGS) were examined with 21- to 24-day-old-mouse (7), as this phenotype is dependent on the age of the mouse and only detected in juvenile Frm1 KO mouse. […] The number of mice undergoing seizure activity within the 2-min period was counted. […]
Social interaction was determined by the 3-chamber test as described. […] The entrances were then opened and the activity of the test mouse was recorded. Time spent in each of the chambers and time spent sniffing the stranger mouse enclosure versus the empty enclosure were recorded. […]

ADCY1 = tested on: ADCY1; design: method as in PMID 21228397; conditions: intact cells; cited from earlier work

SMILES: Nc1ncnc2c1ncn2CCNCCCCCO [NB001, 5-{[2-(6-amino-9H-purin-9-yl)ethyl]amino}-1-pentanol]
- occurrence of AGS versus vehicle (saline)-injected controls (WT and Fmr1 KO mice [1]; Fmr1 KO mice): less occurrence
- % Clonic/tonic seizure (WT and Fmr1 KO mice [1]; Fmr1 KO mice): 5.8%
- % Death (WT and Fmr1 KO mice [1]; Fmr1 KO mice): 5.8%
- % Wild running (WT and Fmr1 KO mice [1]; Fmr1 KO mice): 35.2%
- % Clonic/tonic seizure (WT and Fmr1 KO mice [1]; WT mice): 0%
- % Death (WT and Fmr1 KO mice [1]; WT mice): 0%
- % Wild running (WT and Fmr1 KO mice [1]; WT mice): 0%
- elevated level of p-ERK1/2 in the hippocampus (ERK1/2; Fmr1 KO mice, 1 h after injection, relative to WT levels): normalized
- phosphorylation of ERK1/2 in WT mice (ERK1/2; WT mice, hippocampus): did not cause measurable changes
- level of pAkt (Akt): not affected
- marble burying behaviour, NB001-injected Fmr1 KO versus WT mice (WT and Fmr1 KO mice [2]): comparable
- behaviour in WT mice (WT mice): did not cause measurable changes
- inhibition of ADCY1 activity versus other types of adenylyl cyclases (ADCY1): preferentially inhibits ADCY1 activity over other types of adenylyl cyclases

Reference: publication PMC5321753, “Enhanced expression of ADCY1 underlies aberrant neuronal signalling and behaviour in a syndromic autism model” (Nature Communications, 2017)
